According to ChEMBL document CHEMBL2429720, “Synthesis, antimicrobial, and cytotoxicity studies of novel sulfur-linked quinolinecoumarin bisheterocycles” (Med Chem Res, 2013):
In brackets after ≈: the same amount, converted by molar mass.

Key:
[1] = test system: NIH3T3; test: Cytotoxicity against mouse NIH/3T3 cells after 48 hrs by MTT assay; format: cell-based; conditions: NIH3T3, 48 h
[2] = test system: Candida albicans; test: Antifungal activity against Candida albicans ATCC 90028 at 100 ug/disk after 48 hrs by agar disk diffusion method; format: functional; conditions: ATCC 90028, 48 h, read-out: DIZ
[3] = test system: Candida albicans; test: Antifungal activity against Candida albicans ATCC 90028 after 18 to 24 hrs by agar dilution method; format: functional
[4] = test system: Staphylococcus aureus; test: Antibacterial activity against Staphylococcus aureus ATCC 11632 at 100 ug/disk after 24 hrs by agar disk diffusion method; format: functional; conditions: ATCC 11632, 24 h, read-out: DIZ
[5] = test system: Staphylococcus aureus; test: Antibacterial activity against Staphylococcus aureus ATCC 11632 after 18 to 24 hrs by agar dilution method; format: functional
[6] = test system: Escherichia coli; test: Antibacterial activity against Escherichia coli ATCC 25922 at 100 ug/disk after 24 hrs by agar disk diffusion method; format: functional; conditions: ATCC 25922, 24 h, read-out: DIZ
[7] = test system: Escherichia coli; test: Antibacterial activity against Escherichia coli ATCC 25922 after 18 to 24 hrs by agar dilution method; format: functional
[8] = test system: Staphylococcus aureus; test: microbe, parasite or virus in culture; conditions: ATCC 11632, 24 h, read-out: DIZ
Description: Antibacterial activity against Staphylococcus aureus ATCC 11632 at 10 ug/disk after 24 hrs by agar disk diffusion method

[9] = test system: Escherichia coli; test: microbe, parasite or virus in culture; conditions: ATCC 25922, 24 h, read-out: DIZ
Description: Antibacterial activity against Escherichia coli ATCC 25922 at 10 ug/disk after 24 hrs by agar disk diffusion method

[10] = test system: Candida albicans; test: Antifungal activity against Candida albicans ATCC 90028 at 10 ug/disk after 48 hrs by agar disk diffusion method; format: functional; conditions: ATCC 90028, 48 h, read-out: DIZ

| MIC [3] | MIC [5] | MIC [7] | SMILES | IC50 [1] | zone of inhibition at 100 µg/disc [2] | zone of inhibition at 100 µg/disc [4] | zone of inhibition at 100 µg/disc [6] | zone of inhibition at 10 µg/disc [8] | zone of inhibition at 10 µg/disc [9] | zone of inhibition at 10 µg/disc [10] |
| --- | --- | --- | --- | --- | --- | --- | --- | --- | --- | --- |
| 12.5 µg/mL (≈ 26.9 µM) | 12.5 µg/mL (≈ 26.9 µM) | 12.5 µg/mL (≈ 26.9 µM) | COC(=O)CSc1c(-c2cccc(Br)c2)nc2ccccc2c1-c1ccccc1 | 456 µM | 13 mm | 18 mm | 15 mm | – | – | – |
| 25 µg/mL (≈ 60.2 µM) | 25 µg/mL (≈ 60.2 µM) | 12.5 µg/mL (≈ 30.1 µM) | COC(=O)CSc1c(-c2cccc(OC)c2)nc2ccccc2c1-c1ccccc1 | – | 15 mm | 15 mm | 15 mm | – | – | – |
| 25 µg/mL (≈ 54.6 µM) | 25 µg/mL (≈ 54.6 µM) | 25 µg/mL (≈ 54.6 µM) | O=c1oc2ccccc2cc1Sc1c(-c2ccccc2)nc2ccccc2c1-c1ccccc1 | – | 10 mm | 12 mm | 13 mm | – | – | – |
| 25 µg/mL (≈ 53 µM) | 25 µg/mL (≈ 53 µM) | 25 µg/mL (≈ 53 µM) | Cc1ccc(-c2nc3ccccc3c(-c3ccccc3)c2Sc2cc3ccccc3oc2=O)cc1 | – | 12 mm | 10 mm | 13 mm | – | – | – |
| 25 µg/mL (≈ 50.8 µM) | 25 µg/mL (≈ 50.8 µM) | 25 µg/mL (≈ 50.8 µM) | O=c1oc2ccccc2cc1Sc1c(-c2ccc(Cl)cc2)nc2ccccc2c1-c1ccccc1 | – | 15 mm | 12 mm | 12 mm | – | – | – |
| 12.5 µg/mL (≈ 23.3 µM) | 12.5 µg/mL (≈ 23.3 µM) | 12.5 µg/mL (≈ 23.3 µM) | O=c1oc2ccccc2cc1Sc1c(-c2ccc(Br)cc2)nc2ccccc2c1-c1ccccc1 | – | 20 mm | 18 mm | 18 mm | – | – | – |
| 25 µg/mL (≈ 51.3 µM) | 25 µg/mL (≈ 51.3 µM) | 25 µg/mL (≈ 51.3 µM) | COc1ccc(-c2nc3ccccc3c(-c3ccccc3)c2Sc2cc3ccccc3oc2=O)cc1 | – | 12 mm | 16 mm | 12 mm | – | – | – |
| 12.5 µg/mL (≈ 24.9 µM) | 25 µg/mL (≈ 49.7 µM) | 12.5 µg/mL (≈ 24.9 µM) | O=c1oc2ccccc2cc1Sc1c(-c2ccc([N+](=O)[O-])cc2)nc2ccccc2c1-c1ccccc1 | – | 18 mm | 15 mm | 15 mm | – | – | – |
| 50 µg/mL (≈ 93.7 µM) | 25 µg/mL (≈ 46.8 µM) | 50 µg/mL (≈ 93.7 µM) | O=c1oc2ccccc2cc1Sc1c(-c2ccc(-c3ccccc3)cc2)nc2ccccc2c1-c1ccccc1 | – | 10 mm | 10 mm | < 10 mm | – | – | – |
| 50 µg/mL (≈ 98.5 µM) | 50 µg/mL (≈ 98.5 µM) | 50 µg/mL (≈ 98.5 µM) | O=c1oc2ccccc2cc1Sc1c(-c2ccc3ccccc3c2)nc2ccccc2c1-c1ccccc1 | – | < 10 mm | < 10 mm | < 10 mm | – | – | – |
| 25 µg/mL (≈ 64.9 µM) | 25 µg/mL (≈ 64.9 µM) | 25 µg/mL (≈ 64.9 µM) | COC(=O)CSc1c(-c2ccccc2)nc2ccccc2c1-c1ccccc1 | – | 10 mm | 15 mm | 15 mm | – | – | – |
| 12.5 µg/mL (≈ 31.3 µM) | 12.5 µg/mL (≈ 31.3 µM) | 25 µg/mL (≈ 62.6 µM) | COC(=O)CSc1c(-c2ccc(C)cc2)nc2ccccc2c1-c1ccccc1 | – | 13 mm | 16 mm | 11 mm | – | – | – |
| 25 µg/mL (≈ 59.5 µM) | 25 µg/mL (≈ 59.5 µM) | 12.5 µg/mL (≈ 29.8 µM) | COC(=O)CSc1c(-c2ccc(Cl)cc2)nc2ccccc2c1-c1ccccc1 | – | 15 mm | 13 mm | 12 mm | – | – | – |
| 12.5 µg/mL (≈ 26.9 µM) | 12.5 µg/mL (≈ 26.9 µM) | 6.25 µg/mL (≈ 13.5 µM) | COC(=O)CSc1c(-c2ccc(Br)cc2)nc2ccccc2c1-c1ccccc1 | – | 18 mm | 18 mm | 20 mm | – | – | – |
| 25 µg/mL (≈ 60.2 µM) | 12.5 µg/mL (≈ 30.1 µM) | 12.5 µg/mL (≈ 30.1 µM) | COC(=O)CSc1c(-c2ccc(OC)cc2)nc2ccccc2c1-c1ccccc1 | – | 12 mm | 15 mm | 15 mm | – | – | – |
| 12.5 µg/mL (≈ 29 µM) | 12.5 µg/mL (≈ 29 µM) | 6.25 µg/mL (≈ 14.5 µM) | COC(=O)CSc1c(-c2ccc([N+](=O)[O-])cc2)nc2ccccc2c1-c1ccccc1 | – | 20 mm | 16 mm | 18 mm | – | – | – |
| 50 µg/mL (≈ 108 µM) | 25 µg/mL (≈ 54.2 µM) | 25 µg/mL (≈ 54.2 µM) | COC(=O)CSc1c(-c2ccc(-c3ccccc3)cc2)nc2ccccc2c1-c1ccccc1 | – | 10 mm | 12 mm | 10 mm | – | – | – |
| 25 µg/mL (≈ 57.4 µM) | 50 µg/mL (≈ 115 µM) | 50 µg/mL (≈ 115 µM) | COC(=O)CSc1c(-c2ccc3ccccc3c2)nc2ccccc2c1-c1ccccc1 | – | 10 mm | 10 mm | 10 mm | – | – | – |
| 12.5 µg/mL (≈ 29.8 µM) | 12.5 µg/mL (≈ 29.8 µM) | 12.5 µg/mL (≈ 29.8 µM) | COC(=O)CSc1c(-c2cccc(Cl)c2)nc2ccccc2c1-c1ccccc1 | – | 15 mm | 18 mm | 18 mm | – | – | – |
| – | – | – | O=C(O)c1cn(C2CC2)c2cc(N3CCNCC3)c(F)cc2c1=O [CIPROFLOXACIN] | – | – | – | – | 25 mm | 28 mm | – |
| 6.25 µg/mL (≈ 18.1 µM) | – | – | Clc1ccccc1C(c1ccccc1)(c1ccccc1)n1ccnc1 [CLOTRIMAZOLE] | – | – | – | – | – | – | 28 mm |
